Measured values taken from patent US6569638B1, “Method for screening compounds for the treatment of neoplasia” (Cell Pathways, Inc, priority 2000, dated 2003).

What was measured:
[1] = target: T1, GST-cGB-PDE5 fusion protein (cGMP binding sites of human PDE5A) (Homo sapiens, UniProt O76074); assay: cGMP binding assay (3H-cGMP competition); conditions: 3H-cGMP 2 μM, 22° C., 1 hour
T1 construct: made in house; host or cells: E. coli BL21 (DE3)

PDE peak B = assay: Competitive binding with cGMP
PARP in SW480 cells = assay: PARP cleavage by Western blot; assay type: cell-based, human; conditions: SW480 cells, Compound A 1 μM, 2 days
Protocol: SW480 cells were pre-treated with either DMSO (−) or Rp-8-pCPT-cGMPS (2 μM) for 2 hours and then treated with either DMSO (−) or Compound A (1 μM). Both the floating and attached cells were collected after 2 days, and the cell lysates were assayed for PARP cleavage by Western blotting with anti-PARP antibody. Fold increase in PARP cleavage was measured by densitometry of the 85 kD fragment.
Finally, we investigated whether activation of the PKG pathway is required for the induction of apoptosis by SAANDs. SW480 cells were treated with either DMSO or the PKG inhibitor Rp-8-pCPT-cGMPS (2 μM) for 2 hours and then the cells were treated with either DMSO or Compound A (1 μM) for 2 days. Both the floating and attached cells were collected, and the cell lysates were assayed for poly (ADP-ribose) polymerase (PARP) cleavage by Western blotting with an anti-PARP antibody. PARP is a 116 kD nuclear enzyme that converts NAD to nicotinamide and protein-linked ADP-ribose polymers, which are important for DNA repair and genomic maintenance. In cells that are undergoing apoptosis the 116 kD PARP protein is cleaved by caspase-3 into 85 and 25 kD fragments, thus resulting in loss of normal PARP function. This inactivation of PARP apparently prevents depletion of cellular levels of NAD and ATP, which are thought to be required for later events in apoptosis.

[2] = system: JNK1 in SW480 colon cancer cells; assay: JNK1 immunoprecipitation in vitro kinase assay with GST-c-Jun(1-79); assay type: cell-based, human; conditions: SW480 cells
Protocol: The cells were lysed, JNK1 immunoprecipitated with an anti-JNK1 antibody, and the immunoprecipitate (“IP”) assayed for in vitro kinase activity with GST-c-Jun(1-79) as the substrate. The experiments were repeated three times with similar results. Fold activation was measured using a Phosphor Imager.
FIG. 1B: SW480 cells were treated with Compound A (1 μM) for the indicated time periods and in vitro JNK1 kinase activity was determined as described above.
FIG. 2A SW480 cells were treated with either DMSO (−) or Compound A, 0.1 μM; dbcGMP, 500 μM; YC-1, 50 μM; MY-5445, 50 μM; dipyridamole, 10 μM or dbcAMP, 500 μM for one hour. The cells were lysed, JNK1 immunoprecipitated, and the IP assayed for in vitro kinase activity as described in FIG. 1A.
FIG. 2B SW480 cells were pre-treated with either DMSO, KT5720 (2 μM) or Rp-8-pCPT-cGMPS (2 μM) for 2 hours and then treated with Compound B (0, 1 or 10 μM) for one hour. The cells were lysed and assayed for JNK1 activation in the IP as described above.
These concentrations were chosen since they provided optimal induction of apoptosis. Endogenous JNK1 was immunoprecipitated with anti-JNK1 antibody and in vitro kinase assays were performed with GST-c-Jun(1-79) as the substrate. […]
However, the precise role of PKG in signal transduction pathways is not known. […] As a control, KT5720 was used as a protein kinase A (“PKA”)-specific inhibitor. SW480 cells were treated with either DMSO, KT5720 (2 μM) or Rp-8-pCPT-cGMPS (2 μM) for 2 hours and then treated with either DMSO or Compound B (1 or 10 μM) for one hour. Cell extracts were collected and assayed for JNK1 activation.

caspase-3 in SW480 cells = assay: Caspase-3 activity with Ac-DEVD-AFC substrate; assay type: cell-based, human; conditions: 24 hours, sulindac sulfide 200 μM, exisulind 600 μM, Compound A 1 μM, Compound B 10 μM
Protocol: The cells were lysed and the extracts assayed for caspase-3 activity using Ac-DEVD-AFC as the substrate, in the presence or absence of the caspase-3 inhibitor Ac-DEVD-CHO. Caspase-3 activity was calculated by subtracting the AFC fluorescence (excitation; 400 nm, emission; 505 nm) in the presence of Ac-DEVD-CHO from the AFC fluorescence in the absence of Ac-DEVD-CHO.
Protein extracts were then prepared and caspase-3 activity was measured with Ac-DEVD-AFC as the substrate, in the presence or absence of the caspase-3 inhibitor Ac-DEVD-CHO. […] Similar findings were obtained with HCT116 and HT29 cells (data not shown).

MEKK1 in SW480 cells = assay: MEKK1 cleavage and activation (Western blot, autophosphorylation); assay type: cell-based, human
Protocol: FIG. 3B: SW480 cells were treated with Compound A (1 μM) and collected after either 1 or 2 days and the cell lysates were assayed for MEKK1 cleavage by Western blotting with anti-MEKK1 antibody. Minus (−) indicates DMSO treated control cells.
We then examined the effect of a SAAND on MEKK1, a protein kinase immediately upstream of SEK1. […] Previous studies indicate that MEKK1 is cleaved during activation by caspases (19). […] It is not clear, however, whether cGMP-activated PKG directly activates MEKK1 or whether the cleavage and activation of MEKK1 is an indirect effect of the process of apoptosis.

PDE 5 (i.e., peak A) = PDE 5 (i.e., peak A) (Homo sapiens, UniProt O76074); assay: Competitive binding with cGMP; conditions: PDE 5 (peak A)
SEK1 in SW480 cells = assay: SEK1 phosphorylation by Western blot (anti-phospho-SEK1 Thr223); assay type: cell-based, human; conditions: Compound A 1 μM
Protocol: FIG. 3A: SW480 cells were treated with Compound A (1 μM), collected at the indicated time points, and cell lysates assayed for SEK1 activation by Western blotting with anti-phospho-SEK1 (Thr223) antibody. Fold increase in phosphorylation was measured by densitometry. The experiment was repeated three times with similar results.
To further characterize the signal transduction pathway involved in the above-described JNK1 activation, we tested whether SEK1, the protein kinase immediately upstream of JNK1, was also activated by a SAAND. Activation of SEK1 occurs through phosphorylation of two residues of this protein, Ser219 and Thr223, by the protein kinase MEKK1. SW480 cells were treated with Compound A (1 μM) for various times, up to 6 hours, and extracts were analyzed by Western blot analysis using a phospho-Thr223-specific SEK1 antibody. The treatment with Compound A induced increased phosphorylation of SEK1, within 15-30 minutes, without changing the total cellular level of the endogenous SEK1 protein (see, FIG. 3A). By 1 hour there was a 9-fold induction, and this effect persisted for at least 6 hours (FIG. 3A).

## COc1cc(/C=C2/C(C)=C(CC(=O)NCc3ccccc3)c3cc(F)ccc32)cc(OC)c1OC [Compound A, (Z)-5-fluoro-2-methyl-(3,4,5-trimethyl-oxybenzylidene)-3-(N-benzyl)-indenylacetamide]
[1]
  competition with cGMP for the cGMP binding sites of GST-cGB-PDE5: None of the PDE5 inhibitors showed any competition with cGMP
PDE peak B
  competitive binding with cGMP: competitively (with cGMP) binds
PARP in SW480 cells
  PARP cleavage: induced PARP cleavage
[2]; Compound A 1 μM, time course
  duration of sustained JNK1 activation: at least 24 hours
[2]; one hour, sulindac sulfide 50-500 μM, exisulind 100-600 μM, Compound A 0.1-5 μM, Compound B 1-50 μM
  JNK1 activation: activated JNK1
caspase-3 in SW480 cells
  caspase-3 activation: led to activation of caspase-3
MEKK1 in SW480 cells
  MEKK1 activity (autophosphorylation and phosphorylation of GST-SEK1): strong and transient activation of MEKK1 activity
MEKK1 in SW480 cells; Compound A 1 μM, one or two days
  MEKK1 cleavage: cleavage of this protein
PDE 5 (i.e., peak A)
  competitive binding with cGMP: competitively (with cGMP) bind
SEK1 in SW480 cells
  persistence of SEK1 phosphorylation: at least 6 hours
  time to increased phosphorylation of SEK1: 15 to 30 min
SEK1 in SW480 cells; by 1 hour
  induction of SEK1 phosphorylation: 9 fold
